The results in this text go back to US11492361B2, “Compounds useful in HIV therapy” (GlaxoSmithKline Intellectual Property Development Limited, priority 2018, dated 2022).

In one test the test system is NFKB2. Description: NFkB2 gene induction. The class given is cell-based, human. The settings on record: normal donor CD4 T cells, 24h, read-out: NFkB2 gene induction EC50. As to the method:
5×10^5 normal donor CD4 T cells were treated for 24h with serial dilutions of compounds starting at 1.0 μM at 6 fold, 7 places. Total RNA was isolated using the RNEasy Mini kit (Qiagen) per the manufacturer's instructions. The following TaqMan primer probe sets were sourced from Applied Biosystems: Hs00174517_m1 (NFKB2) and Hs02800695 (HPRT1). TaqMan-based real-time PCR (Fast Virus 1-Step Master Mix, Applied Biosystems) was used to amplify host genes of interest. Gene expression was normalized to HPRT1 and comparative threshold cycle (CT) method (ΔΔCT) was used for relative fold change of gene expression as compared to untreated cells. The data was analyzed by QuantStudio3 Real-Time PCR System.

In test [1] the test system is cell-associated HIV RNA (HIV gag RNA) in CD4+ T cells. In words: Cell associated HIV RNA (caRNA) assay. Format: cell-based, human. The note with it: CD4+ T cells treated for 48 hours. An excerpt: During the productive phase of the viral life cycle, HIV produces a large number of differentially spliced transcripts collectively termed cell-associated HIV RNA (ca-HIV RNA) within some cells that are infected. In HIV-infected individuals on suppressive antiretroviral therapy (ART), changes in the levels of caHIV RNA is an accepted surrogate measure of the efficacy of HIV latency reversal.
To measure ca-HIVRNA, peripheral blood mononuclear cells (PBMCs) are isolated from leukocytes obtained by continuous-flow leukapheresis. Total CD4^+ T cells were isolated from PBMCs by negative selection using the EasySep Human CD4^+ T cell Enrichment kit (StemCell, Vancouver, Canada) per the manufacturer's recommendations. Resting CD4^+ T cells are isolated by negative selection with an immunomagnetic column as described previously (25) and either cryopreserved immediately or maintained for two days in IMDM medium (Gibco), 10% FBS, 2 μg/mL IL-2 (Peprotech), and antiretrovirals to prevent viral expansion.
For SMACm treatment, three to five replicates of 2-5×10^6 CD4^+ T cells were treated for 48 hours at 37° C. in 1 mL of RPMI medium 1640, 10% FBS, 10 μg/mL of enfuvirtide (Sigma), and 200 nM rilpivirine. 10 nM phorbol 12-myristate 13-acetate (PMA; Sigma) with 1 μM ionomycin (Sigma) was used as a positive control for LRA activation and 0.2% DMSO vehicle was used as a negative control. Following treatment, cells were lysed and RNA and DNA were co-extracted using an AIIPrep 96 RNA/DNA kit (Qiagen, Valencia, Calif.) per the manufacturer's instructions, adjusting the volume of lysis buffer to 0.6 mL, adding an on-column DNase I treatment (Qiagen) and eluting RNA in 50 μL of water. […]
HIV absolute HIV gag RNA copies per reaction were determined using an HIV gag gBlock qPCR standard corresponding to the DNA sequence of the qPCR product (5′-[…]-3′ (SEQ ID NO: 4); Integrated DNA Technologies), and copies were normalized to cell counts as determined by bright field microscopy. […]

The target in test [2] is Jurkat HIV-luciferase clones. Description: Jurkat latency reversal assay. Format: cell-based. The settings on record: Table 4 summary, read-out: Jurkat EC50. The method, boiled down: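 Three pooled Jurkat HIV-luciferase clones (C16, I15, N6; 5,000 cells/well, maintained with 500 nM EFV) exposed to 3-fold, 14-point titrations (10 μM to 2.1 pM, 0.5% DMSO) in duplicate for 48 h at 37 °C. Luciferase luminescence read; EC50 and maximal % activation versus vehicle from four-parameter logistic fit.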

Read-outs that look alike come from different tables or passages of the source.

With `CN[C@H](C)C(=O)N[C@@H](C(=O)N1CCC[C@@H]1C(=O)N[C@@H]1c2ccccc2C[C@@H]1OCC#CC#CCO[C@@H]1Cc2ccccc2[C@H]1NC(=O)[C@H]1CCCN1C(=O)[C@H](NC(=O)[C@@H](C)NC)C1CCCCC1)C1CCCCC1` [AZD5582, reference compound], the EC50 (as a rule, the concentration needed to bring the measured effect to its halfway point) in the test with NFKB2 stood at 28 nM; in test [2], 8 nM. In addition, in test [1], the “caRNA Lowest efficacious concentration observed” value was 10.

With `CC[C@H](NC(=O)[C@H](C)NC)C(=O)N1C[C@@H](O)C[C@H]1Cc1c(-c2[nH]c3cc(F)ccc3c2C[C@@H]2C[C@H](O)CN2C(=O)[C@H](CC)NC(=O)[C@H](C)NC)[nH]c2cc(F)ccc12` [Birinapant, reference compound], the EC50 in the test on NFKB2 (Homo sapiens) is above 1000 nM; in test [2] (Homo sapiens, Jurkat, 48 h), 200 nM. Also, the “caRNA Lowest efficacious concentration observed” value in test [1] is above 1000.

Take `CN[C@H](C)C(=O)N[C@@H]1CCS[C@@H]2CC(C)(C)C(C(=O)N[C@@H]3CCCc4ccccc43)N2C1=O` (stereo partly drawn) [SBI-0637142]: the EC50 in the test with NFKB2 turned out to be 18000 nM; in test [2], 1 nM. For the same compound, the “caRNA Lowest efficacious concentration observed” value in test [1] is reported as above 1000.
